According to ChEMBL document CHEMBL1201862, “PubChem BioAssay data set” (2004):
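In this assay, cells in 96-well plates receive the compound at five concentrations for 48 hours. Endpoints are linearly interpolated between the surrounding concentrations. Here, GI50 denotes the concentration required for 50% inhibition of growth.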 Calls of active or inactive are those of the source. Cut-off read from the data, not from the text of the source: active = GI50 up to about 1.1 µM and inactive = higher.

Legend:
Test in all cases: NCI tumour cell line growth inhibition, 48 h
786-0 = test system: 786-0
A498 = test system: A498
A549 = test system: A549
ACHN = test system: ACHN
CAKI-1 = test system: CAKI-1
CCRF-CEM = test system: CCRF-CEM
COLO 205 = test system: COLO 205
DLD-1 = test system: DLD-1
DMS-114 = test system: DMS-114
DMS-273 = test system: DMS-273
EKVX = test system: EKVX
HCC 2998 = test system: HCC 2998
HCT-116 = test system: HCT-116
HCT-15 = test system: HCT-15
HOP-62 = test system: HOP-62
HT-29 = test system: HT-29
IGROV-1 = test system: IGROV-1
K562 = test system: K562
KM-20L2 = test system: KM-20L2
KM12 = test system: KM12
LOX IMVI = test system: LOX IMVI
LXFL 529 = test system: LXFL 529
M14 = test system: M14
M19-MEL = test system: M19-MEL
MOLT-4 = test system: MOLT-4
Malme-3M = test system: Malme-3M
NCI-H226 = test system: NCI-H226
NCI-H460 = test system: NCI-H460
NCI-H522 = test system: NCI-H522
OVCAR-3 = test system: OVCAR-3
OVCAR-5 = test system: OVCAR-5
OVCAR-8 = test system: OVCAR-8
RPMI-8226 = test system: RPMI-8226
RXF 393 = test system: RXF 393
SF-268 = test system: SF-268
SF-295 = test system: SF-295
SF-539 = test system: SF-539
SK-MEL-2 = test system: SK-MEL-2
SK-MEL-5 = test system: SK-MEL-5
SK-OV-3 = test system: SK-OV-3
SN12C = test system: SN12C
SNB-75 = test system: SNB-75
SNB-78 = test system: SNB-78
SW-620 = test system: SW-620
TK-10 = test system: TK-10
U-251 = test system: U-251
UACC-257 = test system: UACC-257
UACC-62 = test system: UACC-62
UO-31 = test system: UO-31
XF498 = test system: XF498
HL-60 = test system: HL-60
HOP-18 = test system: HOP-18
HOP-92 = test system: HOP-92
NCI-H23 = test system: NCI-H23
OVCAR-4 = test system: OVCAR-4
SK-MEL-28 = test system: SK-MEL-28
SR = test system: SR
SNB-19 = test system: SNB-19

CCOC(=O)CNc1nnnn1C1OC(CO)C(O)C1O (configuration not stated)
GI50 (786-0): > 100 µM (inactive) | GI50 (A498): > 100 µM (inactive) | GI50 (A549): > 100 µM (inactive) | GI50 (ACHN): > 100 µM (inactive) | GI50 (CAKI-1): > 100 µM (inactive) | GI50 (CCRF-CEM): > 100 µM (inactive) | GI50 (COLO 205): > 100 µM (inactive) | GI50 (DLD-1): > 100 µM (inactive) | GI50 (DMS-114): > 100 µM (inactive) | GI50 (DMS-273): > 100 µM (inactive) | GI50 (EKVX): > 100 µM (inactive) | GI50 (HCC 2998): > 100 µM (inactive) | GI50 (HCT-116): > 100 µM (inactive) | GI50 (HCT-15): > 100 µM | GI50 (HOP-62): > 100 µM (inactive) | GI50 (HT-29): > 100 µM (inactive) | GI50 (IGROV-1): > 100 µM (inactive) | GI50 (K562): > 100 µM (inactive) | GI50 (KM-20L2): > 100 µM (inactive) | GI50 (KM12): > 100 µM (inactive) | GI50 (LOX IMVI): > 100 µM (inactive) | GI50 (LXFL 529): > 100 µM (inactive) | GI50 (M14): > 100 µM (inactive) | GI50 (M19-MEL): > 100 µM (inactive) | GI50 (MOLT-4): > 100 µM (inactive) | GI50 (Malme-3M): > 100 µM (inactive) | GI50 (NCI-H226): > 100 µM (inactive) | GI50 (NCI-H460): > 100 µM (inactive) | GI50 (NCI-H522): > 100 µM (inactive) | GI50 (OVCAR-3): > 100 µM (inactive) | GI50 (OVCAR-5): > 100 µM (inactive) | GI50 (OVCAR-8): > 100 µM (inactive) | GI50 (RPMI-8226): > 100 µM (inactive) | GI50 (RXF 393): > 100 µM (inactive) | GI50 (SF-268): > 100 µM (inactive) | GI50 (SF-295): > 100 µM (inactive) | GI50 (SF-539): > 100 µM (inactive) | GI50 (SK-MEL-2): > 100 µM (inactive) | GI50 (SK-MEL-5): > 100 µM (inactive) | GI50 (SK-OV-3): > 100 µM (inactive) | GI50 (SN12C): > 100 µM (inactive) | GI50 (SNB-75): > 100 µM (inactive) | GI50 (SNB-78): > 100 µM (inactive) | GI50 (SW-620): > 100 µM (inactive) | GI50 (TK-10): > 100 µM (inactive) | GI50 (U-251): > 100 µM (inactive) | GI50 (UACC-257): > 100 µM (inactive) | GI50 (UACC-62): > 100 µM (inactive) | GI50 (UO-31): > 100 µM (inactive) | GI50 (XF498): > 100 µM (inactive)

N#CNC(=N)NC(=O)/C=C/C=C/c1ccc(Cl)cc1
GI50 (786-0): 88.5 µM (inactive) | GI50 (A498): > 100 µM (inactive) | GI50 (A549): > 100 µM (inactive) | GI50 (ACHN): > 100 µM (inactive) | GI50 (CAKI-1): > 100 µM (inactive) | GI50 (CCRF-CEM): > 100 µM (inactive) | GI50 (COLO 205): > 100 µM (inactive) | GI50 (DLD-1): > 100 µM (inactive) | GI50 (DMS-114): 84.5 µM (inactive) | GI50 (DMS-273): > 100 µM (inactive) | GI50 (HCT-116): > 100 µM (inactive) | GI50 (HCT-15): > 100 µM | GI50 (HL-60): > 100 µM (inactive) | GI50 (HOP-18): > 100 µM (inactive) | GI50 (HOP-62): > 100 µM (inactive) | GI50 (HOP-92): > 100 µM (inactive) | GI50 (HT-29): > 100 µM (inactive) | GI50 (IGROV-1): > 100 µM (inactive) | GI50 (K562): > 100 µM (inactive) | GI50 (KM-20L2): > 100 µM (inactive) | GI50 (KM12): > 100 µM (inactive) | GI50 (LOX IMVI): > 100 µM (inactive) | GI50 (LXFL 529): 47.4 µM (inactive) | GI50 (M14): > 100 µM (inactive) | GI50 (M19-MEL): > 100 µM (inactive) | GI50 (MOLT-4): > 100 µM (inactive) | GI50 (Malme-3M): 39.4 µM (inactive) | GI50 (NCI-H226): > 100 µM (inactive) | GI50 (NCI-H23): > 100 µM (inactive) | GI50 (NCI-H460): > 100 µM (inactive) | GI50 (NCI-H522): > 100 µM (inactive) | GI50 (OVCAR-3): > 100 µM (inactive) | GI50 (OVCAR-4): 57.5 µM (inactive) | GI50 (OVCAR-5): > 100 µM (inactive) | GI50 (OVCAR-8): 82.2 µM (inactive) | GI50 (RPMI-8226): > 100 µM (inactive) | GI50 (RXF 393): 41.6 µM (inactive) | GI50 (SF-268): 52.7 µM (inactive) | GI50 (SF-295): > 100 µM (inactive) | GI50 (SF-539): 21.3 µM (inactive) | GI50 (SK-MEL-28): > 100 µM (inactive) | GI50 (SK-MEL-2): > 100 µM (inactive) | GI50 (SK-MEL-5): 33.3 µM (inactive) | GI50 (SK-OV-3): > 100 µM (inactive) | GI50 (SN12C): > 100 µM (inactive) | GI50 (SNB-75): 24.2 µM (inactive) | GI50 (SNB-78): 55.1 µM (inactive) | GI50 (SR): 72.9 µM (inactive) | GI50 (SW-620): > 100 µM (inactive) | GI50 (TK-10): 94.2 µM (inactive) | GI50 (U-251): > 100 µM (inactive) | GI50 (UACC-257): > 100 µM (inactive) | GI50 (UACC-62): > 100 µM (inactive) | GI50 (UO-31): > 100 µM (inactive)

NC(=O)c1cccc(C2OC(COP(=O)(O)O)C(O)C2O)c1 (configuration not stated)
GI50 (786-0): 21.7 µM (inactive) | GI50 (A498): > 50 µM (inactive) | GI50 (A549): > 50 µM (inactive) | GI50 (ACHN): > 50 µM (inactive) | GI50 (CAKI-1): > 50 µM (inactive) | GI50 (CCRF-CEM): 9.93 µM (inactive) | GI50 (COLO 205): > 50 µM (inactive) | GI50 (DLD-1): 36.6 µM (inactive) | GI50 (DMS-273): 48 µM (inactive) | GI50 (EKVX): > 50 µM (inactive) | GI50 (HCC 2998): > 50 µM (inactive) | GI50 (HCT-116): > 50 µM (inactive) | GI50 (HCT-15): 27.4 µM | GI50 (HL-60): 20.7 µM (inactive) | GI50 (HOP-62): > 50 µM (inactive) | GI50 (HT-29): > 50 µM (inactive) | GI50 (IGROV-1): > 50 µM (inactive) | GI50 (K562): 26.8 µM (inactive) | GI50 (KM-20L2): > 50 µM (inactive) | GI50 (KM12): > 50 µM (inactive) | GI50 (LOX IMVI): > 50 µM (inactive) | GI50 (LXFL 529): > 50 µM (inactive) | GI50 (M14): 20 µM (inactive) | GI50 (M19-MEL): > 50 µM (inactive) | GI50 (MOLT-4): 10.9 µM (inactive) | GI50 (Malme-3M): > 50 µM (inactive) | GI50 (NCI-H226): 32.9 µM (inactive) | GI50 (NCI-H23): > 50 µM (inactive) | GI50 (NCI-H460): > 50 µM (inactive) | GI50 (NCI-H522): > 50 µM (inactive) | GI50 (OVCAR-3): > 50 µM (inactive) | GI50 (OVCAR-5): > 50 µM (inactive) | GI50 (OVCAR-8): 16 µM (inactive) | GI50 (RPMI-8226): > 50 µM (inactive) | GI50 (RXF 393): 18.6 µM (inactive) | GI50 (SF-268): 36.9 µM (inactive) | GI50 (SF-295): 39.1 µM (inactive) | GI50 (SF-539): 15.8 µM (inactive) | GI50 (SK-MEL-28): 45.9 µM (inactive) | GI50 (SK-MEL-2): > 50 µM (inactive) | GI50 (SK-MEL-5): > 50 µM (inactive) | GI50 (SK-OV-3): > 50 µM (inactive) | GI50 (SN12C): > 50 µM (inactive) | GI50 (SNB-19): > 50 µM (inactive) | GI50 (SNB-75): 14.4 µM (inactive) | GI50 (SNB-78): 43.7 µM (inactive) | GI50 (SW-620): 42.9 µM (inactive) | GI50 (TK-10): > 50 µM (inactive) | GI50 (U-251): > 50 µM (inactive) | GI50 (UACC-257): > 50 µM (inactive) | GI50 (UACC-62): > 50 µM (inactive) | GI50 (UO-31): 26.1 µM (inactive) | GI50 (XF498): 14.7 µM (inactive)
